Legend:
[1] = tested on: SKOV-3 human ovarian tumor cells; test: SRB (sulforhodamine B) assay, antiproliferative activity, SKOV-3; format: cell-based
Description: (§1) Anticancer activities of the inclusion compounds synthesized in Synthesis Examples 1 and 2 were measured as follows.
(§2) First, the oxaliplatin-cucurbitu[7]ril inclusion compounds synthesized in Synthesis Examples 1 and 2, were freeze-dried to prepare samples. Tumor cells used were A 549 (human non-small cell lung), SKOV-3 (human ovarian), SKMEL-2 (human melanoma), XF498 (human CNS), and HCT-15 (human colon), and analyzed by SRB (sulforhodamine B) assay.

[2] = Isothermal microcalorimeter titration of oxaliplatin and cucurbitu[7]ril; format: physicochemical; settings: 25° C., 20 mM oxaliplatin, 1 mM cucurbitu[7]ril
[3] = tested on: XF-498 human CNS tumor cells; test: SRB (sulforhodamine B) assay, antiproliferative activity, XF-498; format: cell-based
Description: as §1, §2

[4] = tested on: HCT-15 human colon tumor cells; test: SRB (sulforhodamine B) assay, antiproliferative activity, HCT-15; format: cell-based
Description: as §1, §2

[5] = tested on: A549 human non-small cell lung tumor cells; test: SRB (sulforhodamine B) assay, antiproliferative activity, A549; format: cell-based
Description: as §1, §2

[6] = tested on: SKMEL-2 human melanoma tumor cells; test: SRB (sulforhodamine B) assay, antiproliferative activity, SKMEL-2; format: cell-based
Description: as §1, §2

With `N[C@@H]1CCCC[C@H]1N.O=C([O-])C(=O)[O-].[Pt+2]` (relative stereo) [Oxaliplatin, (trans-L-diaminocyclohexane)oxalatoplatinum (II)] the “Antiproliferative activity (ED50/μM)” value [1] was 0.67 µM, the binding constant [2] was 2.39×10^5(±0.4) M^−1 and the binding enthalpy [2] was -6.33 kcal/mol. The “Antiproliferative activity (ED50/μM)” value [3] was 0.49 µM, the “Antiproliferative activity (ED50/μM)” value [4] was 0.90 µM and the “Antiproliferative activity (ED50/μM)” value [5] was 0.42 µM. The “Antiproliferative activity (ED50/μM)” value [6] was 0.97 µM.
With `N.N.[Cl][Pt][Cl]` [Cisplatin] the “Antiproliferative activity (ED50/μM)” value [1] was 2.87 µM, the “Antiproliferative activity (ED50/μM)” value [3] was 0.46 µM and the “Antiproliferative activity (ED50/μM)” value [4] was 1.32 µM. For the same compound, the “Antiproliferative activity (ED50/μM)” value [5] was 1.17 µM and the “Antiproliferative activity (ED50/μM)” value [6] was 3.08 µM.

— US7459471B2, “Inclusion compound comprising cucurbituril derivatives as host molecule and pharmaceutical composition comprising the same” (Postech Foundation, priority 2001, dated 2008)
